Where “and” joins values, the source holds several entries; their conditions need not be identical. Equal entries are not always repeated. Where two headings read alike, the source gives them in different places.
Tests used:
mGluR2 [1] = biological target: mGluR2 (Mus musculus, UniProt Q14BI2, A548F); assay: Live-cell FRET, azi-CRD (cysteine-rich domain) sensor in HEK293T cells; details: for Normalized FRET response, Mean (azi-CRD agonist DRC): maximal responses normalized to 1mM glutamate
mGluR2 [2] = biological target: T1, mGluR2 (Mus musculus, UniProt Q14BI2); assay: Live-cell FRET, SNAP-m2 (VFT domain) inter-subunit sensor in HEK293T cells; details: for Normalized FRET response, Mean (SNAP-m2 agonist DRC): maximal responses normalized to 1mM glutamate;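 for all read-outs here: apparent FRET efficiency from whole-membrane ROIs of single cells, corrected for donor bleed-through and background, ΔFRET as treatment minus pretreatment signal, recorded at room temperature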
mGluR2 [3] = biological target: mGluR2 (Mus musculus, UniProt Q14BI2, INS715F); assay: Live-cell FRET, azi-ECL2 (7TM domain, extracellular loop 2) sensor in HEK293T cells;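 note: Cy3/Cy5 click-labeled sensor, whole-membrane ROIs per cell, apparent FRET after bleed-through correction, ΔFRET as treatment minus pre-treatment signal, at room temperature, at least three biological replicates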
mGluR2 [4] = biological target: T1, mGluR2; assay: Functional calcium imaging, SNAP-mGluR2 (no FLAG-tag) with chimeric G protein Gqo5 in HEK293T cells; assay type: cell-based; parameters: Full length mGluR2 construct with an amber codon (TAG) mutation of amino acid A548 (azi-CRD) or N-terminal SNAP-tag (SNAP-mGluR2); host or cells: HEK293T; details: for Intracellular Ca2+ response, Mean / Intracellular Ca2+ response: normalized to 1mM glutamate; for Intracellular Ca2+ response: single experiments

T1 sequence (Q14BI2 19-872): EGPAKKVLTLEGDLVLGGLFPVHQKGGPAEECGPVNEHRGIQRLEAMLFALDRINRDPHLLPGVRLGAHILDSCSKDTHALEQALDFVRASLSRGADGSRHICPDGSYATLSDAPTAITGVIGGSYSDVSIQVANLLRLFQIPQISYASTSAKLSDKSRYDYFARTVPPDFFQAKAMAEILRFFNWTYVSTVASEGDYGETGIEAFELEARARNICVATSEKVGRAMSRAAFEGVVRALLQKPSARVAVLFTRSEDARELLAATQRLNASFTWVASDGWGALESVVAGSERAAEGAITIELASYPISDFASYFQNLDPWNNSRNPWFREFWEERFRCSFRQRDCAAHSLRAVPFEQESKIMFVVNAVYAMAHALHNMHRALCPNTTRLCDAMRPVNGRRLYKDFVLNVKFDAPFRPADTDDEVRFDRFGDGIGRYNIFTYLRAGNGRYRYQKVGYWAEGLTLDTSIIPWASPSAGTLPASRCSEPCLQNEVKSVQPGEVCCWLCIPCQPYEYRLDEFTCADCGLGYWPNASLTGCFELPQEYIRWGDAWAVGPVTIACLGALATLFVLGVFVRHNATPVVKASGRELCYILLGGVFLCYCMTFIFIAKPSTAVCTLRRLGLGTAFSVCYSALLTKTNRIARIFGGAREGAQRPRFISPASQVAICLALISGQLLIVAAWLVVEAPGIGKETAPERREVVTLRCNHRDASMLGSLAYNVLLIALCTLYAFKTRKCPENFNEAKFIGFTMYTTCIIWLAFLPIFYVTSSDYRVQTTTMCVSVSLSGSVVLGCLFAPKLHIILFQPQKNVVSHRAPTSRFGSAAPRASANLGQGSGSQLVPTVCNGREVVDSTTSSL
Chain of mGluR2 (Mus musculus, UniProt Q14BI2, INS715F) (Q14BI2 with tags, fused parts or gaps INS715F): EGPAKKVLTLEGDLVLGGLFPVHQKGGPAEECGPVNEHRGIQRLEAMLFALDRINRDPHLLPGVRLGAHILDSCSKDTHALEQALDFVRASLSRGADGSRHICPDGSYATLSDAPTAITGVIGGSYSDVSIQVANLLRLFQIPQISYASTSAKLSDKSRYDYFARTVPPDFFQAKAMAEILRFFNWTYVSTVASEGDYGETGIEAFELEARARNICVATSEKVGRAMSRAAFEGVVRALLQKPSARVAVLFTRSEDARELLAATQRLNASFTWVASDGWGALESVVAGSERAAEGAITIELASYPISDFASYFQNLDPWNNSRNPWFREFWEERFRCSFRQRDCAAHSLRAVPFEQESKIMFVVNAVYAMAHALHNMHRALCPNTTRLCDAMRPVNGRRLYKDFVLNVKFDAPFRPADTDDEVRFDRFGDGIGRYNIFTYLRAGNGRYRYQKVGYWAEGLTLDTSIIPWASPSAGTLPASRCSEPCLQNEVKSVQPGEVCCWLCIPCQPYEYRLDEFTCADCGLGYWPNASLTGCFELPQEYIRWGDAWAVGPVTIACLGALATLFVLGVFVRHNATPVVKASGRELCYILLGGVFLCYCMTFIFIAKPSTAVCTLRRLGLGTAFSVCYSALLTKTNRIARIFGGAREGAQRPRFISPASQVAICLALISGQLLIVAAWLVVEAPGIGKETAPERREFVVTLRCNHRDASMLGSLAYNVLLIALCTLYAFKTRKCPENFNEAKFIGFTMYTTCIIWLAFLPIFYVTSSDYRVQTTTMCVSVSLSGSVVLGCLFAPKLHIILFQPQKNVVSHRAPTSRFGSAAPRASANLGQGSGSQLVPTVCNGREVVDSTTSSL
Chain of mGluR2 (Mus musculus, UniProt Q14BI2, A548F) (Q14BI2 19-872 A548F): as the sequence (Q14BI2 19-872) above, with A530F counted along it

Which Hill slope (mGluR2 [1]; azi-CRD sensor, orthosteric agonist alone) does the source give for `N[C@@]1(C(=O)O)CN[C@@H](C(=O)O)C1` [(2R,4R)-APDC] here?
Its Hill slope is 1.10.

What about the “Live-cell FRET max response normalized to 1mM glutamate” value (mGluR2 [1]; azi-CRD sensor, (2R,4R)-APDC, individual values (N=13)) of the same molecule?
The value was 1.025 and 1.046 and 1.029 and 1.018 and 1.041 and 0.9926 and 1.05 and 1.031 and 1.033 and 1.059 and 0.9828 and 0.9967 and 0.9994.

And the “Mean max response (normalized max ΔFRET)” value (mGluR2 [1]; azi-CRD, agonist alone (1 mM glutamate, 100 μM DCG-IV, 20 μM LY379268, 100 μM APDC), normalized to 1 mM glutamate)?
Its value is 1.02.

What about the “Normalized Max ΔFRET” value (mGluR2 [1]; azi-CRD, 100μM agonist, individual cells, normalized to 1mM glutamate) of the same molecule?
The value was 105.882 and 99.2629 and 105.009 and 103.1 and 103.252 and 98.2759 and 99.67 and 99.937 and 102.531 and 104.556 and 102.893 and 101.835 and 104.136.

What about the “Normalized Max ΔFRET, Mean” value (mGluR2 [1]; azi-CRD, 100μM agonist, mean of cells, normalized to 1mM glutamate) of the same molecule?
The value was 102.334.

And the “Normalized FRET response, Mean (azi-CRD agonist DRC)” value (mGluR2 [1]; log[ligand] (M) -4)?
Its value is 1.023.

And the “Normalized FRET response, Mean (azi-CRD agonist DRC)” value (mGluR2 [1]; log[ligand] (M) -4.1549)?
Its value is 1.003.

And the “Normalized FRET response, Mean (azi-CRD agonist DRC)” value (mGluR2 [1]; log[ligand] (M) -4.52288)?
Its value is 0.929.

And the “Normalized FRET response, Mean (azi-CRD agonist DRC)” value (mGluR2 [1]; log[ligand] (M) -5)?
Its value is 0.7432.

What about the “Normalized FRET response, Mean (azi-CRD agonist DRC)” value (mGluR2 [1]; log[ligand] (M) -5.39794) of the same molecule?
Its value is 0.4945.

What about the “Normalized FRET response, Mean (azi-CRD agonist DRC)” value (mGluR2 [1]; log[ligand] (M) -5.82391) of the same molecule?
The value was 0.2779.

And the “Normalized FRET response, Mean (azi-CRD agonist DRC)” value (mGluR2 [1]; log[ligand] (M) -6.52288)?
The value was 0.07413.

What about the “Normalized FRET response, Mean (azi-CRD agonist DRC)” value (mGluR2 [1]; log[ligand] (M) -7) of the same molecule?
The value was 0.

What about the EC50 (mGluR2 [1]; read-out: Mean half-maximum effective concentration (EC50), azi-CRD sensor, orthosteric agonist alone) of the same molecule?
The EC50 was 6.5 µM.

What about the “Mean max response (normalized max ΔFRET)” value (mGluR2 [2]; SNAP-m2 (VFT), agonist alone (1 mM glutamate, 100 μM DCG-IV, 20 μM LY379268, 100 μM APDC), normalized to 1 mM glutamate) of the same molecule?
The value was 0.96.

And the “Normalized Max ΔFRET” value (mGluR2 [2]; SNAP-m2, 100μM agonist, individual cells, normalized to 1mM glutamate)?
Its value is 103.479 and 93.3266 and 93.5994 and 94.2433 and 93.7977 and 94.1947 and 102.7 and 100.974 and 101.936 and 101.611 and 93.0019 and 94.3775 and 90.2119 and 91.2088.

And the “Normalized Max ΔFRET, Mean” value (mGluR2 [2]; SNAP-m2, 100μM agonist, mean of cells, normalized to 1mM glutamate)?
The value was 96.333.

And the Hill slope (mGluR2 [2]; SNAP-m2 sensor, orthosteric agonist alone)?
The Hill slope was “–1.10”.

What about the “Live-cell FRET max response normalized to 1mM glutamate” value (mGluR2 [2]; SNAP-m2 sensor, (2R,4R)-APDC, individual values (N=14)) of the same molecule?
The value was 1.016 and 0.93 and 0.9438 and 0.9021 and 0.9121 and 0.9333 and 0.936 and 0.9424 and 0.938 and 0.9419 and 1.035 and 1.027 and 1.01 and 1.019.

What about the “Normalized FRET response, Mean (SNAP-m2 agonist DRC)” value (mGluR2 [2]; log[ligand] (M) -4) of the same molecule?
The value was -0.9633.

What about the “Normalized FRET response, Mean (SNAP-m2 agonist DRC)” value (mGluR2 [2]; log[ligand] (M) -4.52288) of the same molecule?
The value was -0.8729.

And the “Normalized FRET response, Mean (SNAP-m2 agonist DRC)” value (mGluR2 [2]; log[ligand] (M) -5)?
Its value is -0.684.

And the “Normalized FRET response, Mean (SNAP-m2 agonist DRC)” value (mGluR2 [2]; log[ligand] (M) -5.39794)?
Its value is -0.4889.

What about the “Normalized FRET response, Mean (SNAP-m2 agonist DRC)” value (mGluR2 [2]; log[ligand] (M) -6) of the same molecule?
The value was -0.1727.

What about the “Normalized FRET response, Mean (SNAP-m2 agonist DRC)” value (mGluR2 [2]; log[ligand] (M) -6.52288) of the same molecule?
Its value is -0.05437.

And the “Normalized FRET response, Mean (SNAP-m2 agonist DRC)” value (mGluR2 [2]; log[ligand] (M) -7)?
The value was 0.

And the “Normalized FRET response, Mean (SNAP-m2 agonist DRC)” value (mGluR2 [2]; log[ligand] (M) -7.69897)?
The value was 0.

And the EC50 (mGluR2 [2]; read-out: Live-cell FRET titration EC50, SNAP-m2, agonist alone, individual experiments)?
The EC50 was 2.88 µM and 3.03 µM and 3.16 µM and 22.1 µM and 5.53 µM and 4.87 µM.

What about the EC50 (mGluR2 [2]; read-out: Mean half-maximum effective concentration (EC50), SNAP-m2 sensor, orthosteric agonist alone) of the same molecule?
The EC50 was 6.9 µM.

And the “Mean max response (normalized max ΔFRET)” value (mGluR2 [3]; azi-ECL2, agonist alone (1 mM glutamate, 100 μM DCG-IV, 20 μM LY379268, 100 μM APDC), normalized to 1 mM glutamate)?
Its value is 1.05.

What about the “Normalized ΔFRET response, Mean (agonist DRC)” value (“Normalized ΔFRET response, Mean” for short) (mGluR2 [3]; azi-ECL2, log[agonist] (M) -4, normalized to 1 mM glutamate) of the same molecule?
Its value is 1.046.

What about the “Normalized ΔFRET response, Mean” value (mGluR2 [3]; azi-ECL2, log[agonist] (M) -4.1549, normalized to 1 mM glutamate) of the same molecule?
The value was 1.0205.

And the “Normalized ΔFRET response, Mean” value (mGluR2 [3]; azi-ECL2, log[agonist] (M) -4.52288, normalized to 1 mM glutamate)?
The value was 0.9248.

And the “Normalized ΔFRET response, Mean” value (mGluR2 [3]; azi-ECL2, log[agonist] (M) -5, normalized to 1 mM glutamate)?
The value was 0.7108.

What about the “Normalized ΔFRET response, Mean” value (mGluR2 [3]; azi-ECL2, log[agonist] (M) -5.39794, normalized to 1 mM glutamate) of the same molecule?
Its value is 0.4486.

What about the “Normalized ΔFRET response, Mean” value (mGluR2 [3]; azi-ECL2, log[agonist] (M) -5.82391, normalized to 1 mM glutamate) of the same molecule?
The value was 0.2358.

And the “Normalized ΔFRET response, Mean” value (mGluR2 [3]; azi-ECL2, log[agonist] (M) -6.52288, normalized to 1 mM glutamate)?
The value was 0.04024.

What about the “Normalized ΔFRET response, Mean” value (mGluR2 [3]; azi-ECL2, log[agonist] (M) -7, normalized to 1 mM glutamate) of the same molecule?
The value was 0.

What about the “Normalized Max ΔFRET, Mean” value (mGluR2 [3]; azi-ECL2, 100μM agonist, mean of cells, normalized to 1mM glutamate) of the same molecule?
The value was 104.617.

What about the Hill slope (mGluR2 [3]; azi-ECL2 sensor, orthosteric agonist alone) of the same molecule?
Its Hill slope is 1.14.

What about the EC50 (mGluR2 [3]; read-out: EC50, live-cell FRET titration, azi-ECL2 sensor, (2R,4R)-APDC, individual cell values (N=13)) of the same molecule?
Its EC50 is 8.97 µM and 10.9 µM and 18.9 µM and 4.32 µM and 2.57 µM and 2.14 µM and 6.27 µM and 6.18 µM and 3.15 µM and 4.64 µM and 4.05 µM and 5.53 µM.

What about the EC50 (mGluR2 [3]; read-out: Mean half-maximum effective concentration (EC50), azi-ECL2 sensor, orthosteric agonist alone) of the same molecule?
Its EC50 is 6.7 µM.

And the “Normalized Max Intracellular Ca2+ Response, individual experiments” value (mGluR2 [4]; 100 μM DCG-IV, 10 μM LY379268, 300 μM APDC, normalized to 1 mM glutamate, single replicate)?
Its value is 1.151 and 1.196 and 0.9567.

What about the “Normalized Max Intracellular Ca2+ Response, mean” value (mGluR2 [4]; 1 mM Glu, 100 μM DCG-IV, 10 μM LY379268, 300 μM APDC, normalized to 1 mM glutamate) of the same molecule?
Its value is 1.101.

What about the “Intracellular Ca2+ response, Mean” value (mGluR2 [4]; log[agonist] (M) -3.52288) of the same molecule?
Its value is 1.101.

What about the “Intracellular Ca2+ response” value (mGluR2 [4]; log[agonist] (M) -3.52288) of the same molecule?
Its value is 1.101.

What about the “Intracellular Ca2+ response, Mean” value (mGluR2 [4]; log[agonist] (M) -3.82391) of the same molecule?
The value was 1.121.

And the “Intracellular Ca2+ response” value (mGluR2 [4]; log[agonist] (M) -3.82391)?
Its value is 1.13 and 1.129 and 1.105.

And the “Intracellular Ca2+ response, Mean” value (mGluR2 [4]; log[agonist] (M) -4)?
The value was 1.103.

And the “Intracellular Ca2+ response” value (mGluR2 [4]; log[agonist] (M) -4)?
The value was 1.155 and 1.085 and 1.068.

And the “Intracellular Ca2+ response, Mean” value (mGluR2 [4]; log[agonist] (M) -4.52288)?
The value was 0.9624.

What about the “Intracellular Ca2+ response” value (mGluR2 [4]; log[agonist] (M) -4.52288) of the same molecule?
Its value is 0.9835 and 0.9555 and 0.9483.

What about the “Intracellular Ca2+ response, Mean” value (mGluR2 [4]; log[agonist] (M) -5) of the same molecule?
The value was 0.7274.

And the “Intracellular Ca2+ response” value (mGluR2 [4]; log[agonist] (M) -5)?
Its value is 0.6253 and 0.7115 and 0.8453.

What about the “Intracellular Ca2+ response, Mean” value (mGluR2 [4]; log[agonist] (M) -5.39794) of the same molecule?
The value was 0.3932.

What about the “Intracellular Ca2+ response” value (mGluR2 [4]; log[agonist] (M) -5.39794) of the same molecule?
The value was 0.2825 and 0.3895 and 0.5075.

What about the “Intracellular Ca2+ response, Mean” value (mGluR2 [4]; log[agonist] (M) -6) of the same molecule?
Its value is 0.

What about the “Intracellular Ca2+ response” value (mGluR2 [4]; log[agonist] (M) -6) of the same molecule?
Its value is 0.

What about the “Intracellular Ca2+ response, Mean” value (mGluR2 [4]; log[agonist] (M) -6.52288) of the same molecule?
Its value is 0.

What about the “Intracellular Ca2+ response” value (mGluR2 [4]; log[agonist] (M) -6.52288) of the same molecule?
Its value is 0.

And the “Intracellular Ca2+ response, Mean” value (mGluR2 [4]; log[agonist] (M) -7)?
Its value is 0.

What about the “Intracellular Ca2+ response” value (mGluR2 [4]; log[agonist] (M) -7) of the same molecule?
The value was 0.

What about the “Intracellular Ca2+ response, Mean” value (mGluR2 [4]; log[agonist] (M) -7.69897) of the same molecule?
Its value is 0.

And the “Intracellular Ca2+ response” value (mGluR2 [4]; log[agonist] (M) -7.69897)?
Its value is 0.

What about the “Intracellular Ca2+ response, Mean” value (mGluR2 [4]; log[agonist] (M) -8) of the same molecule?
The value was 0.

What about the “Intracellular Ca2+ response” value (mGluR2 [4]; log[agonist] (M) -8) of the same molecule?
The value was 0.

What about the EC50 (mGluR2 [4]; one value per experiment, read-out: EC50, intracellular Ca2+ response) of the same molecule?
The EC50 was 4.48 µM and 8.58 µM and 6.56 µM.
